# Experimental data as given in US10259810B2, “N-sulfonylated pyrazolo[3,4-b]pyridin-6-carboxamides and method of use” (AbbVie S.à.r.l., priority 2015, dated 2019).
# Like-named read-outs stand apart in the source and are kept apart here.
# Biological target: T1, ΔF508-CFTR (Homo sapiens, UniProt P13569, DEL508-508)
# T1 construct: host or cells: CFBE41o-, doxycycline-inducible
# Assay: CFTR cell surface levels using HRP-tagged ΔF508-CFTR expressing CFBE cells, in the presence of a co-corrector
# Format: cell-based
# Source text: Measuring CFTR Cell Surface Levels Using HRP-Tagged ΔF508-CFTR Expressing CFBE Cells
# The HRP-tagged ΔF508-CFTR cell assay measures the expression of CFTR-ΔF508 at the plasma membrane. CFTR-ΔF508 has a folding defect leading to absence of protein at the plasma membrane. This assay is used to evaluate the capacity of compounds to increase the expression of CFTR-ΔF508 at the plasma membrane. The CFTR-ΔF508 is tagged with HRP (horse radish peroxidase enzyme) within the ECL4 (Extracellular loop 4) of CFTR (Phuan, P.-W. et al. Synergy-based small-molecule screen using a human lung epithelial cell line yields ΔF508-CFTR correctors that augment VX-809 maximal efficacy. Mol. Pharmacol. 86, 42-51 (2014)). When HRP-tagged ΔF508-CFTR is present at the plasma membrane, the HRP enzyme activity can be measured. The amount of CFTR-ΔF508 that can be rescued to the plasma membrane is correlated with the amount of functional enzyme that can be measured.
# There are several ways to measure the capacity of compounds to rescue CFTR-ΔF508 to the plasma membrane; either compounds are evaluated on their own and the impact on plasma membrane levels is measured or compounds are evaluated in combination with a co-corrector, i.e. a compound that rescues CFTR-ΔF508 to the plasma membrane but rescue can be enhanced by addition of compounds due to a complementary mode of action.
# Activity of Compounds in Combination with Co-Corrector:
# For this purpose doxycycline-inducible ΔF508-CFTR-HRP expressing CFBE4lo− cells (obtained from Gergely Lukacs, McGill University) were maintained in MEM (Minimum Essential Medium, Gibco; 31095) supplemented with 10% fetal bovine serum (Hyclone; SV30160.03) under puromycin (3 μg/mL) and G418 selection (0.2 mg/mL). For compound testing, cells were seeded at 4000 cells/well in white 384-well plates (Greiner; 781080) in 50 μL of medium containing 0.5 μg/mL doxycycline and incubated for 68 hours at 37° C., 5% CO2. On day four, 10 μL of test compounds diluted in PBS (phosphate buffered saline) were added to the plates at a final DMSO concentration of 0.1%. In order to measure compound synergy with a co-corrector, 3 μM co-corrector (3-[(2R,4R)-4-({[1-(2,2-difluoro-1,3-benzodioxol-5-yl)cyclopropyl]carbonyl}amino)-7-methoxy-3,4-dihydro-2H-chromen-2-yl]benzoic acid) was added along with test compounds. All compound plates contained negative controls (DMSO) and positive controls (3 μM co-corrector). Cell plates were incubated at 33° C., 5% CO2 for 20 hours. On day five, the cells were washed five times with phosphate-buffered saline, and HRP activity was assayed by the addition of 50 μL/well of HRP substrate (SuperSignal™ West Pico Chemiluminescent Substrate, Thermo Scientific; 34080). After incubation for 15 minutes in the dark, the chemiluminescence was measured using a plate reader (EnVision®, Perkin Elmer). Raw data were normalized to percentage activity values using the equation: 100×(Sample−Negative control)/(Positive control−Negative Control).
# [1] = HRP-tagged ΔF508-CFTR CFBE cells, in the presence of 3 μM co-corrector
# [2] = HRP-tagged ΔF508-CFTR CFBE cells, in the presence of 3 μM co-corrector, read-out: EC50
# T1 sequence (P13569 with tags, fused parts or gaps DEL508-508): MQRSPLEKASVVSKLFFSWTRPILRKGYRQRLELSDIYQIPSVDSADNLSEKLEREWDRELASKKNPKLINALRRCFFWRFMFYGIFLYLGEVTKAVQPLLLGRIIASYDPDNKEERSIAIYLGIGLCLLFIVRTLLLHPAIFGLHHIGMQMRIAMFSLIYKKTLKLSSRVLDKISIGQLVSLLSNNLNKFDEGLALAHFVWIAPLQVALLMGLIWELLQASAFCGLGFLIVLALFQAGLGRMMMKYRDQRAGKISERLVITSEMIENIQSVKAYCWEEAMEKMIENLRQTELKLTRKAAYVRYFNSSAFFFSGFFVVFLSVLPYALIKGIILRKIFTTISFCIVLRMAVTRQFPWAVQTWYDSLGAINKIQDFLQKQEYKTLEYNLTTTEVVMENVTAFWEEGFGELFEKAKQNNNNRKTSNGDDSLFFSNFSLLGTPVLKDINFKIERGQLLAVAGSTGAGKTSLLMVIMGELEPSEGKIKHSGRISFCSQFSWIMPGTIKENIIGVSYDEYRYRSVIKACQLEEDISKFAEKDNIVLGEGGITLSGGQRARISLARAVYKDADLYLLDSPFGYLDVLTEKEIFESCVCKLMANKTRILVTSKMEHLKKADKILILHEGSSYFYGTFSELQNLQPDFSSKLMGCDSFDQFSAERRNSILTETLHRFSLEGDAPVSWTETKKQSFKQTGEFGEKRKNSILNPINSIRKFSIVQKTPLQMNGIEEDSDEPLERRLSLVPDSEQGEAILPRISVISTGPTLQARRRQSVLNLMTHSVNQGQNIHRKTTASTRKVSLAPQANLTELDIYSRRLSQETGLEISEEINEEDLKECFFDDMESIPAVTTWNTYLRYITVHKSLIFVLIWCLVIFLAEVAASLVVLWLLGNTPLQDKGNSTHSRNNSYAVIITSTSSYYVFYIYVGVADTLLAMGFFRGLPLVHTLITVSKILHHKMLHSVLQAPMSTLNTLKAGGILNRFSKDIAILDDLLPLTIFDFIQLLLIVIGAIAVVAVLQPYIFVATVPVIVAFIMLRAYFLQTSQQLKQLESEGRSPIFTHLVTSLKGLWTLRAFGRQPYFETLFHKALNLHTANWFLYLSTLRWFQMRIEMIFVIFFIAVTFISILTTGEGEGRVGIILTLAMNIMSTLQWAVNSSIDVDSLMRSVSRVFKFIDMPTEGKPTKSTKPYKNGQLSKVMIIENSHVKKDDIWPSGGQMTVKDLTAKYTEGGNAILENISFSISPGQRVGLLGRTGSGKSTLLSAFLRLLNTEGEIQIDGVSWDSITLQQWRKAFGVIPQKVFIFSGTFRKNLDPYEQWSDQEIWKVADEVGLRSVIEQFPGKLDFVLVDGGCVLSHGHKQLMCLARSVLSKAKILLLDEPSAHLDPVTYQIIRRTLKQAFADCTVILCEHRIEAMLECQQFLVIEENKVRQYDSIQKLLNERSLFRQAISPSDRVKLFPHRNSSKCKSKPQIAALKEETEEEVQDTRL
Structure (SMILES),% Activation [1],EC50 [2],EC50
"Cc1nn(-c2ccccc2)c2nc(C(=O)NS(C)(=O)=O)cc(-c3ccc(N4CCOCC4)cc3)c12 [Compound 1, N-(methanesulfonyl)-3-methyl-4-[4-(morpholin-4-yl)phenyl]-1-phenyl-1H-pyrazolo[3,4-b]pyridine-6-carboxamide]",297.2%,1190 nM,
"CCS(=O)(=O)NC(=O)c1cc(-c2ccc(N3CCOCC3)cc2)c2c(C)nn(-c3ccccc3)c2n1 [Compound 5, N-(ethanesulfonyl)-3-methyl-4-[4-(morpholin-4-yl)phenyl]-1-phenyl-1H-pyrazolo[3,4-b]pyridine-6-carboxamide]",362.75%,372 nM,
"COCC1CCN(c2cc(C(=O)NS(=O)(=O)CCC(=O)OC)nc3c2c(C2CCC2)nn3-c2ccccc2)CC1 [Compound 288, methyl 3-({3-cyclobutyl-4-[4-(methoxymethyl)piperidin-1-yl]-1-phenyl-1H-pyrazolo[3,4-b]pyridine-6-carbonyl}sulfamoyl)propanoate]",566.4%,74.3 nM,
"COCC1CCN(c2cc(C(=O)NS(=O)(=O)CCC(=O)O)nc3c2c(C2CCC2)nn3-c2ccccc2)CC1 [Compound 289, 3-({3-cyclobutyl-4-[4-(methoxymethyl)piperidin-1-yl]-1-phenyl-1H-pyrazolo[3,4-b]pyridine-6-carbonyl}sulfamoyl)propanoic Acid]",366.4%,3330 nM,
"COCCN(C)c1cc(C(=O)NS(C)(=O)=O)nc2c1c(C(C)C)nn2-c1ccc(F)cc1 [Compound 301, 1-(4-fluorophenyl)-N-(methanesulfonyl)-4-[(2-methoxyethyl)(methyl)amino]-3-(propan-2-yl)-1H-pyrazolo[3,4-b]pyridine-6-carboxamide]",376.6%,1140 nM,
"COCC1CCN(c2cc(C(=O)NS(=O)(=O)CCCN3CCC3)nc3c2c(C(C)C)nn3-c2ccc(F)cc2)CC1 [Compound 302, N-[3-(azetidin-1-yl)propane-1-sulfonyl]-1-(4-fluorophenyl)-4-[4-(methoxymethyl)piperidin-1-yl]-3-(propan-2-yl)-1H-pyrazolo[3,4-b]pyridine-6-carboxamide]",401.45%,1800 nM,
"CC(C)c1nn(-c2ccc(F)cc2)c2nc(C(=O)NS(C)(=O)=O)cc(OCCC3CCCCN3C)c12 (centres unmarked) [Compound 305, 1-(4-fluorophenyl)-N-(methanesulfonyl)-4-[2-(1-methylpiperidin-2-yl)ethoxy]-3-(propan-2-yl)-1H-pyrazolo[3,4-b]pyridine-6-carboxamide]",267%,2440 nM,
"CC(=O)N1CCC(F)(COc2cc(C(=O)NS(C)(=O)=O)nc3c2c(C(C)C)nn3-c2ccc(F)cc2)CC1 [Compound 308, 4-[(1-acetyl-4-fluoropiperidin-4-yl)methoxy]-1-(4-fluorophenyl)-N-(methanesulfonyl)-3-(propan-2-yl)-1H-pyrazolo[3,4-b]pyridine-6-carboxamide]",328.85%,2490 nM,
"COCC(COC)Oc1cc(C(=O)NS(C)(=O)=O)nc2c1c(C(C)C)nn2-c1ccc(F)cc1 [Compound 311, 4-[(1,3-dimethoxypropan-2-yl)oxy]-1-(4-fluorophenyl)-N-(methanesulfonyl)-3-(propan-2-yl)-1H-pyrazolo[3,4-b]pyridine-6-carboxamide]",241.35%,1060 nM,
"CC(C)c1nn(-c2ccc(F)cc2)c2nc(C(=O)NS(C)(=O)=O)cc(OCC3COCCO3)c12 (centres unmarked) [Compound 312, 4-[(1,4-dioxan-2-yl)methoxy]-1-(4-fluorophenyl)-N-(methanesulfonyl)-3-(propan-2-yl)-1H-pyrazolo[3,4-b]pyridine-6-carboxamide]",291.5%,1880 nM,
"CC(C)c1nn(-c2ccc(F)cc2)c2nc(C(=O)NS(C)(=O)=O)cc(OCCOC3COC3)c12 [Compound 313, 1-(4-fluorophenyl)-N-(methanesulfonyl)-4-{2-[(oxetan-3-yl)oxy]ethoxy}-3-(propan-2-yl)-1H-pyrazolo[3,4-b]pyridine-6-carboxamide]",319.75%,1750 nM,
"CS(=O)(=O)NC(=O)c1cc(OCCCN2CCCCC2)c2c(C3CCC3)nn(-c3ccccc3)c2n1 [Compound 314, 3-cyclobutyl-N-(methanesulfonyl)-1-phenyl-4-[3-(piperidin-1-yl)propoxy]-1H-pyrazolo[3,4-b]pyridine-6-carboxamide]",375.8%,693 nM,
"CC(=O)N1CCC(COc2cc(C(=O)NS(C)(=O)=O)nc3c2c(C(C)C)nn3-c2ccc(F)cc2)CC1 [Compound 321, 4-[(1-acetylpiperidin-4-yl)methoxy]-1-(4-fluorophenyl)-N-(methanesulfonyl)-3-(propan-2-yl)-1H-pyrazolo[3,4-b]pyridine-6-carboxamide]",314.37%,497 nM,
"COCC(COC)Oc1cc(C(=O)NS(C)(=O)=O)nc2c1c(C1CCC1)nn2-c1ccccc1 [Compound 324, 3-cyclobutyl-4-[(1,3-dimethoxypropan-2-yl)oxy]-N-(methanesulfonyl)-1-phenyl-1H-pyrazolo[3,4-b]pyridine-6-carboxamide]",259.7%,1640 nM,
"CC(=O)N1CC[C@@H]2CN(c3cc(C(=O)NS(=O)(=O)CCCN4CCOCC4)nc4c3c(C3CCC3)nn4-c3ccccc3)CC[C@@H]21 [Compound 332, 4-[(3aR,7aS)-1-acetyloctahydro-5H-pyrrolo[3,2-c]pyridin-5-yl]-3-cyclobutyl-N-[3-(morpholin-4-yl)propane-1-sulfonyl]-1-phenyl-1H-pyrazolo[3,4-b]pyridine-6-carboxamide]",448.25%,,624 nM
"CC(C)c1nn(-c2ccc(F)cc2)c2nc(C(=O)NS(C)(=O)=O)cc(N3CCC4(CC3)CN(C)C(=O)O4)c12 [Compound 338, 1-(4-fluorophenyl)-N-(methanesulfonyl)-4-(3-methyl-2-oxo-1-oxa-3,8-diazaspiro[4.5]decan-8-yl)-3-(propan-2-yl)-1H-pyrazolo[3,4-b]pyridine-6-carboxamide]",344.25%,946 nM,
"CC(C)c1nn(-c2ccc(F)cc2)c2nc(C(=O)NS(C)(=O)=O)cc(N3CCC4(CC3)NC(=O)NC4=O)c12 [Compound 341, 4-(2,4-dioxo-1,3,8-triazaspiro[4.5]decan-8-yl)-1-(4-fluorophenyl)-N-(methanesulfonyl)-3-(propan-2-yl)-1H-pyrazolo[3,4-b]pyridine-6-carboxamide]",165.4%,3330 nM,
"CCOCC1(F)CCN(c2cc(C(=O)NS(C)(=O)=O)nc3c2c(C(C)C)nn3-c2ccc(F)cc2)CC1 [Compound 342, 4-[4-(ethoxymethyl)-4-fluoropiperidin-1-yl]-1-(4-fluorophenyl)-N-(methanesulfonyl)-3-(propan-2-yl)-1H-pyrazolo[3,4-b]pyridine-6-carboxamide]",336.5%,207 nM,
"COCCOCC1(F)CCN(c2cc(C(=O)NS(C)(=O)=O)nc3c2c(C(C)C)nn3-c2ccc(F)cc2)CC1 [Compound 343, 4-{4-fluoro-4-[(2-methoxyethoxy)methyl]piperidin-1-yl}-1-(4-fluorophenyl)-N-(methanesulfonyl)-3-(propan-2-yl)-1H-pyrazolo[3,4-b]pyridine-6-carboxamide]",356.9%,566 nM,
